# Experimental data taken from ChEMBL document CHEMBL3507680, “University of Dundee, Gates Library screen for HepG2 cell viability”.
# Assay: Human HepG2 cell viability assay in 384 well format
# Type: toxicity, cell-based
# Design: dose 125 nL, time 70.5 hour; cytotoxicity at 70.5 h: concentration not given beside the values
# Conditions: HepG2 cells, read-out: Inhibition
row,SMILES,cytotoxicity at 70.5 h [%]
1,COc1cccc(CNC(=O)CCNS(=O)(=O)c2ccc(C)cc2)c1,-3.42
2,CCC(O)CN1CCN(C(=O)C2(c3ccc(C)c(OC)c3)CC2)CC1 (centres undefined),4.09
3,COc1cc(C2(C(=O)N3CCN(CC(C)(C)O)CC3)CC2)ccc1C,-0.73
4,CC(C)OCCNC1(c2ccc(F)cc2)CCOCC1,-3.2
5,Cc1cc(CNC(=O)N2CCN(C(C)c3cccnc3)CC2)c(C)o1 (centres undefined),-0.922
6,CCOCCCNC(=O)CCSCc1csc(C)n1,-2.1
7,CS(=O)(=O)NCC1CCCCN1C(=O)c1ccsc1 (centres undefined),-2.66
8,CN(Cc1ccccc1F)C(C(N)=O)c1ccccc1 (centres undefined),5.98
9,Cc1cc(C2CCCN2Cc2ccc(S(=O)(=O)N3CCCC3)o2)on1 (centres undefined),-102
10,CC(C)N(C)C(=O)c1ccc(CNc2cncc(Cl)n2)cc1,-115
11,CC(C)CC(=O)N1CCN(Cc2csc(-c3ncccn3)n2)CC1,-5.3
12,CCSc1cc(C(=O)NCCc2nnc(-c3ccco3)[nH]2)ccn1,20.1
13,CC(C)C(C)NC(=O)Nc1cccc2c1CCN(S(C)(=O)=O)C2 (centres undefined),-2.03
14,Cc1c(C(=O)NCC(C)C)nnn1-c1cccc2c1CCN(C(C)C)C2,-0.43
15,CCS(=O)(=O)N1CCc2c(cccc2NC(=O)NCCO)C1,12.8
16,CC(=O)Nc1cccc(OCCNC(=O)N(C)Cc2ccncc2)c1,20.7
17,COc1ccccc1OCCC(=O)NC1CCc2nc(C)cn2C1 (centres undefined),-3.16
18,Cc1cn2c(n1)CCC(NC(=O)CCC1CC1)C2 (centres undefined),-3.09
19,CCC(Nc1cccc(Oc2ccccn2)c1)C(N)=O (centres undefined),-7.08
20,Cn1ncnc1CNC(=O)N(CCCO)C1CCc2ccccc21 (centres undefined),-6.34
21,COc1cc(C(=O)N(Cc2cccs2)C2CC2)cc2c1OCCO2,16
22,Cc1cn2c(n1)CCC(NC(=O)CCCOCc1ccccc1)C2 (centres undefined),-12.5
23,CCc1nnc(CN2CCCC(Cn3nc(C)nc3C)C2)o1 (centres undefined),-11.6
24,COc1ccc(CC(=O)NC2CCc3nc(C)cn3C2)cc1 (centres undefined),-7.41

row,SMILES,cytotoxicity at 70.5 h [%]
1,CN(C(=O)Cn1nc(-c2ccc(F)cc2)oc1=O)c1ccccc1,-11.5
2,Cc1cccnc1NC(=O)CNC(=O)c1ccccc1Cl,-14.5
3,O=C(NCC(O)c1ccc(F)cc1F)c1cccnc1O (centres undefined),-15.5
4,O=C(NC1CC1)c1cc(NC(=O)N2CCCC2)ccc1Cl,-13.8
5,O=C(NC1CC1)c1cc(NC(=O)N2CCOCC2)ccc1Cl,-15.3
6,O=C(c1ccncc1)N1CCCC1C1CCN(Cc2ccccc2)CC1 (centres undefined),0.737
7,CC(=O)N1CCCN(C(=O)Cc2ccc3c(c2)OCO3)CC1,-14.3
8,O=C(c1ccoc1)N1CCCC1C1CCN(Cc2ccccc2)CC1 (centres undefined),23.5
9,Cc1nc(NC(=O)c2cccnc2N2CCOCC2)sc1C,-13.9
10,O=C(CN1CCC(C(=O)c2cc(F)ccc2F)CC1)NC1CC1,-12
11,CCOc1ncccc1C(=O)NCC(O)c1ccc(F)c(F)c1 (centres undefined),-6.21
12,COCCNC(=O)Nc1ccc(C(=O)N2CCSCC2)cc1C,-12.4
13,Cc1n[nH]c(C2CN(C(=O)c3ccc4c(c3)CCCC4)CCO2)n1 (centres undefined),21
14,Cc1n[nH]c(C2CN(C(=O)c3scnc3C)CCO2)n1 (centres undefined),-7.66
15,CC(=O)Nc1nc(CN2CCCC2Cn2cccn2)cs1 (centres undefined),-6.85
16,CCN(C(=O)C1CCC1)C(c1cccnc1)c1ccc2c(c1)CCO2 (centres undefined),38.8
17,CCn1c(C)nnc1CN(C)C1CCN(CCc2cccs2)C1 (centres undefined),10.5
18,CCN1CCCN(c2ncccc2C(=O)N2CCCCC2)CC1,9.71
19,Cc1nc(CNCC2CCCN2c2cccnn2)oc1C (centres undefined),-4.96
20,CCOC(=O)N1CCN(CC(=O)Nc2ccc(F)cc2Cl)CC1,-8.51
21,CC(=O)c1c(F)cccc1N1CCC(NS(=O)(=O)c2ccccc2)CC1,1.15
22,O=C(Nc1nccs1)NC1CCOc2ccccc21 (centres undefined),-1.72
23,Cc1ccc(S(=O)(=O)N(C)CC(N)=O)c(Cl)c1,-10.6
24,Cc1csc(N2CCN(C(=O)c3cc(Cl)c[nH]3)CC2)n1,-0.933

row,SMILES,cytotoxicity at 70.5 h [%]
1,O=C(Cn1cc(NC(=O)c2ccc(F)cc2F)cn1)NC1CCCC1,-4.45
2,Cc1nn(C(C)C)c(C)c1NC(=O)c1ccc(F)cc1,-2.59
3,Cc1noc(C)c1CNC(=O)N1CCN(CC2CC2)CC1,-5.87
4,Cc1nn(C(C)C)c(C)c1NC(=O)c1cccnc1,1.88
5,CC1Cc2ccccc2N1Cc1occc1C(=O)NCC(=O)N(C)C (centres undefined),-1.83
6,CCCN(C)c1ccc(C(=O)Nc2c(C)nn(C(C)C)c2C)cc1,-3.3
7,CCN(CC)c1ccc(NS(=O)(=O)c2cccnc2)cn1,-1.98
8,COc1cc(C)nc(N2CCN(C(=O)c3cc(Cl)c[nH]3)CC2)n1,-1.56
9,CNC(=O)COC(=O)c1ccoc1CN1c2ccccc2CC1C (centres undefined),0.373
10,CC(C)Oc1cccc(C(O)CNC(=O)Nc2cccs2)c1 (centres undefined),-4.72
11,CS(=O)(=O)c1ccc(OCCNCc2c(F)cccc2F)cc1,-3.48
12,CS(=O)(=O)c1ccc(OCCNCc2cccc(O)c2)cc1,-0.254
13,CCS(=O)(=O)N(C)C1CCN(c2cccc(F)c2C(C)=O)CC1,-4.38
14,CCN(C(=O)C1CC1)C(c1cccnc1)c1ccc2c(c1)CCO2 (centres undefined),-5.96
15,COC(=O)CN1CCN(c2cccc(C)c2)CC1,-2.66
16,COCCNC(=O)c1ccoc1CN1c2ccccc2CC1C (centres undefined),-6.26
17,COc1cccc(CN(C)C(=O)CCC(=O)c2ccccc2)c1OC,-9.57
18,CCN(C)C(=O)CCC(=O)c1cccs1,-7.69
19,NC(=O)CSc1ccccc1NC(=O)C1CCCC1,-5.87
20,N#Cc1ncn(CCC(=O)Nc2cccc(Cl)c2)n1,-8.53
21,Cc1cnc(C(=O)N2CCN(Cc3csc(C)n3)CC2)cn1,-6.71
22,CCS(=O)(=O)CCN1CCN(C(C)c2cccnc2)CC1 (centres undefined),19.9
23,O=C(CCCc1ccccn1)N1CCSC2(CCCCC2)C1,18.8
24,Cc1n[nH]c(SCC(=O)NC(c2ccccn2)C(C)C)n1 (centres undefined),-0.841

row,SMILES,cytotoxicity at 70.5 h [%]
1,O=C(COCC1CC1)N1CCSCC1,2.26
2,Cc1ccc(CNC(=O)CNCC2CCN(CCO)CC2)s1,-1.79
3,COc1ncccc1C(=O)N1CCCC1c1nc(-c2ccccc2)n[nH]1 (centres undefined),-0.047
4,Cc1cc(C2CCCN2C(=O)CN(C)Cc2ccccc2)no1 (centres undefined),-5.16
5,CC(C)(O)CN1CCN(C(=O)COC2CCCC2)CC1,-2.37
6,O=C(c1ccncc1F)N1CCCC1c1nc(-c2ccccc2)n[nH]1 (centres undefined),-3.44
7,Cc1cncc(C(=O)N2CCOc3nc(C)ccc32)c1,-7.26
8,Cc1cnn(C2CN(CC(=O)N(C)Cc3ccc(C)o3)C2)c1,39.8
9,CC(C)NC(=O)CN1CCSC2(CCCCC2)C1,18.3
10,CC(C)(C)OC(=O)N1CC(CC(=O)NCc2ccsc2)C1,7.8
11,Cc1cc(CNC(=O)CN2CCN(C(=O)OC(C)(C)C)CC2)ccc1F,13.3
12,CC(=O)N(C)c1nc(CN2CCN(Cc3nccn3C)CC2)cs1,10.2
13,Cc1cn2nc(N3CCCC3C(=O)N3CCSCC3)sc2n1 (centres undefined),-8.52
14,Cc1cc(CNC(=O)Nc2cc(F)cc(N3CCCC3)c2)no1,-13.7
15,O=C(Cc1ccccc1Cl)Nc1ccn(CCN2CCOCC2)n1,-12.9
16,CSc1ccsc1C(=O)NS(=O)(=O)c1cccc(C#N)c1,-13.1
17,O=C1CCc2cc(S(=O)(=O)NC(=O)c3ccc4c(c3)OCO4)ccc2N1,-15.2
18,Cn1c(CN2CCN(CC3CCCO3)CC2)nc2ccccc21 (centres undefined),-9.16
19,CCc1cc(CNC(=O)NCc2ccc(N3CCCCC3)cc2)on1,-7.79
20,Cc1cnn(C2CN(CC(=O)N(C)Cc3cccs3)C2)c1,-11.5
21,Clc1ccc2cccnc2c1CN1CCn2c(nnc2C2CC2)C1,-13.3
22,Nc1nc(CN2CCN(c3nccs3)CC2)cs1,-5.16
23,Fc1cccc(Cl)c1CN1CCn2c(nnc2C2CC2)C1,-10.3
24,CC(=O)N1CCCc2ccc(S(=O)(=O)N3CCCCC3C)cc21 (centres undefined),-3.92

row,SMILES,cytotoxicity at 70.5 h [%]
1,CCOc1cccc(CCNC(=O)Cc2ccn[nH]2)n1,-7.14
2,COCc1ccccc1C(=O)NS(=O)(=O)c1ccc2c(c1)CCC(=O)N2,-9.29
3,Cc1nnc(N2CCCC2)c(C(N)=O)c1C,-6.33
4,CC(C)(C)OC(=O)N1CC(CC(=O)NCc2ccnc(C3CC3)c2)C1,-8.99
5,Cc1nnc2n1CCN(Cc1c(Cl)ccc3cccnc13)C2,26.2
6,CN(Cc1ccc([S+](C)[O-])cc1)c1ccc(C(F)(F)F)cn1 (centres undefined),-4.29
7,CN(C(=O)c1cccn1C)C1CCC(NC(=O)OC(C)(C)C)CC1 (centres undefined),-9.69
8,O=C(COCc1ccccc1)Nc1ccccn1,0.318
9,Cc1ccc2c(c1)C(NCc1ncnn1C)CC2 (centres undefined),-5.24
10,Cn1cnnc1-c1cncc(NCc2cccc3c2OC(C)(C)C3)c1,8.22
11,CCCC(C)(C)NC(=O)c1cnc(C)s1,2.45
12,CCc1ncc(C(=O)NC(C)(C)CC)s1,-1.24
13,N#Cc1ccccc1CNC(C(=O)N1CCOCC1)c1ccccc1 (centres undefined),-1.56
14,Cc1n[nH]cc1CNC(C(=O)N1CCCCC1)c1ccccc1 (centres undefined),3.13
15,O=C(C(NCc1cccc(F)c1F)c1ccccc1)N1CCOCC1 (centres undefined),-1.89
16,N#Cc1ccc(N2CCN(c3ncccn3)CC2)c(C(F)(F)F)c1,8.58
17,COCCSc1ccc(C(C)NC(=O)Nc2cccnc2)cc1 (centres undefined),-4.37
18,c1cnn(CC2CCCN2c2ncnc3c2CCC3)c1 (centres undefined),4.07
19,COc1ccc(S(=O)(=O)N2CCn3nc(C)nc3C2)cc1C,-5.13
20,COc1cccc(-c2csc(Cn3ccc(=O)[nH]c3=O)n2)c1,19.5
21,COc1ccc(C)cc1-c1csc(Cn2ccc(=O)[nH]c2=O)n1,2.92
22,CCn1c(C)cc(-c2csc(Cn3ccc(=O)[nH]c3=O)n2)c1C,-4.42
23,N#Cc1c[nH]c(C(=O)N(Cc2ccc(O)cc2)CC2CC2)c1,-2.25
